{
  "source": "patent US9718800B2",
  "about": "“Chromenone derivatives” (AstraZeneca AB, priority 2009, dated 2017)",
  "molecular_target": "PI3Kβ (Homo sapiens (Human), UniProt P42338)",
  "sequence (P42338 whole entry)": "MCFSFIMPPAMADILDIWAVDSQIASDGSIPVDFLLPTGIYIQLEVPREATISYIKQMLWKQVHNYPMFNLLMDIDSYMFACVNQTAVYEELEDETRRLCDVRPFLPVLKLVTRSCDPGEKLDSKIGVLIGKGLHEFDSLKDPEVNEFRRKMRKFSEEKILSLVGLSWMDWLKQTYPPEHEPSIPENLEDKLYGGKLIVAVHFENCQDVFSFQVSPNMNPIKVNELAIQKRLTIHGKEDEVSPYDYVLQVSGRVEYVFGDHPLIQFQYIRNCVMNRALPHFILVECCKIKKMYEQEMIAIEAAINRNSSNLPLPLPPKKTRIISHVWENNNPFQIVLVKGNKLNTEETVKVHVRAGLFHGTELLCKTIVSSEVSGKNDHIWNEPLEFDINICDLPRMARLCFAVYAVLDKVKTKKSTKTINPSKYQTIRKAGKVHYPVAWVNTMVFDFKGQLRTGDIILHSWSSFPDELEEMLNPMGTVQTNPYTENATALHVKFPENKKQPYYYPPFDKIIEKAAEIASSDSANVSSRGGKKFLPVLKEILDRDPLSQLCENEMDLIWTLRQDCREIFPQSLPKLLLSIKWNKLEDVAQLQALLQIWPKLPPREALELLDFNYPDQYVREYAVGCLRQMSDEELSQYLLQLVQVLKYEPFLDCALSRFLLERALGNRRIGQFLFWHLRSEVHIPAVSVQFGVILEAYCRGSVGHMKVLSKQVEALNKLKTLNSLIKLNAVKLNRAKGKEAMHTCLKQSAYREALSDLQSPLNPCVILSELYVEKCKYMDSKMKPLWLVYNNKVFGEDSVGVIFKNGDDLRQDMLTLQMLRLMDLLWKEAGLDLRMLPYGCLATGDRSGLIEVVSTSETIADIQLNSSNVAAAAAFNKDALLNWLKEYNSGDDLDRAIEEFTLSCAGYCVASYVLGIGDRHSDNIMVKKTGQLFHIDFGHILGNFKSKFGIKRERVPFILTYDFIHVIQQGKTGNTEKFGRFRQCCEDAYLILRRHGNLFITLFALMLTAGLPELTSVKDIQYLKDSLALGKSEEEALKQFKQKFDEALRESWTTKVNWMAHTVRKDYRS",
  "sequence (P27986 whole entry partner)": "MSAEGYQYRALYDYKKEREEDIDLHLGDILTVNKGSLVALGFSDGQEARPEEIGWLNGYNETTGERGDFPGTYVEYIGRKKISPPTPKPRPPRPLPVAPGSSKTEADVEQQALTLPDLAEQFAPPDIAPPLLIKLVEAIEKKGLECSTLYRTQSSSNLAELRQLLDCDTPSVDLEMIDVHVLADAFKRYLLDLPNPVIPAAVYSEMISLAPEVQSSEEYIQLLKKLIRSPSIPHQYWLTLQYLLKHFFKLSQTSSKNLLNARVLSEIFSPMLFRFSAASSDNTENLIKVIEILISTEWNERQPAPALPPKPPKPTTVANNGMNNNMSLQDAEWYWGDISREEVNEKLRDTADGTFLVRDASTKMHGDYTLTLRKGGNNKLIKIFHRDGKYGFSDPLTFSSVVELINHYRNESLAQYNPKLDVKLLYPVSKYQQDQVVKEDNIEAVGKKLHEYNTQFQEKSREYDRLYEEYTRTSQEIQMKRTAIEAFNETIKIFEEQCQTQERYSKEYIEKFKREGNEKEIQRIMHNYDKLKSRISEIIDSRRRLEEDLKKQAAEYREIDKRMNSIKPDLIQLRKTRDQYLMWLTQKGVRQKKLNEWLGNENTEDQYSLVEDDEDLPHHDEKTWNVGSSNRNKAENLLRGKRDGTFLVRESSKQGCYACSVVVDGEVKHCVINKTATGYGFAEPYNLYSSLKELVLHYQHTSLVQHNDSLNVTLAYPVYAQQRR",
  "test": "In vitro enzyme inhibition assay (Kinase Glo based enzyme activity assay)",
  "format": "biochemical",
  "conditions": "Test (a), Table A",
  "method": "(a) In Vitro Enzyme Inhibition Assay\nThe inhibition of PI3Kβ, PI3Kα, PI3Kγ and PI3Kδ was evaluated in a Kinase Glo based enzyme activity assay using human recombinant enzymes. The assay measures depletion of ATP after incubation with enzyme, PIP2 and ATP plus compound. ATP at the end of the reaction is detected by addition of Kinase Glo reagent, in this the Ultra Glo™ luciferase (Promega) uses the ATP as a substrate to catalyze the mono-oxygenation of luciferin and the generation of light. A direct relationship exists between the luminescence measured with the Kinase-Glo Plus Reagent and the amount of ATP remaining in a completed kinase reaction and luminescence is inversely related to kinase activity.\nCompounds in 100% DMSO were added to assay plates by acoustic dispensing. PI3Kβ was added in a Tris buffer (50 mM Tris pH7.4, 0.05% CHAPS, 2.1 mM DTT, and 10 mM MgCl2) and allowed to preincubate with compound for 20 minutes prior to addition of substrate solution containing PIP2 and ATP. The enzyme reaction was stopped after 80 minutes by the addition of Kinase Glo detection solution. Plates were left for 30 minutes at room temperature then read on a Pherastar Instrument (Luminescence ATP 384 program) setting gain on max well. […]\nIC50 values were calculated using a log curve fitting to a non-linear regression package, fitting raw data to inhibitor concentration.",
  "note": "pIC50: −log10 of the molar value.",
  "data": [
    {"molecule": "CC(c1cc(C(=O)NCCN(C)C)cc2c(=O)cc(N3CCOCC3)oc12)N(C)c1ccc(F)c(F)c1", "note": "(stereo not shown) [Example 3.01, 8-(1-((3,4-difluorophenyl)(methyl)amino)ethyl)-N-(2-(dimethylamino)ethyl)-2-morpholino-4-oxo-4H-chromene-6-carboxamide]", "values": [
      {"measurement": "pIC50", "result": 8.22}
    ]}
  ]
}
